Test results as given in patent publication US20190049429A1, “METHOD FOR OBSERVING DYNAMICS OF SWEAT GLANDS” (MANDOM CORPORATION, priority 2016, published 2019).

Experiments:
Format in all cases: cell-based, human
[1] = tested on: isolated whole sweat glands; test: Evaluation of test substance for perspiration-controlling action: moving distance of cells in whole sweat glands stimulated with pilocarpine; conditions: atropine pre-incubated 30 minutes, pilocarpine 10 mM after 10 minutes
Description: Whole sweat glands were observed by time-lapse imaging in the same manner as in Example 1 except that Krebs-Ringer solution was used in place of PBS, that atropine as a test substance was added onto the whole sweat glands before observing the whole sweat glands by using time-lapse imaging and thereafter the whole sweat glands were incubated for 30 minutes, and that pilocarpine was added onto the whole sweat glands so as to have a concentration of 10 mM after 10 minutes passed from the initiation of the observation (Experiment No. 1). Next, cells E, F, G, H and I were selected from the image of FIG. 21, and a moving distance of each cell was examined in the same manner as in Example 1. Next, the average value of moving distances of cells was obtained by using the moving distance of each cell. The scale bar in FIG. 21 means 50 μm.
In addition, whole sweat glands were observed by time-lapse imaging in the same manner as in Example 1 except that Krebs-Ringer's solution was used in place of PBS and that pilocarpine was added onto the whole sweat glands so as to have a concentration of 10 mM after 10 minutes passed from the initiation of the observation (Experiment No. 2). Next, cells J, K, L, M and N were selected from the image of FIG. 22, and a moving distance of each cell was examined in the same manner as in Example 1. […]

[2] = tested on: isolated whole sweat glands; test: Time-lapse imaging of stained isolated whole sweat glands held with collagen in PBS: moving distance of cells after stimulant; conditions: pilocarpine 10 mM added 60 seconds after initiation of observation, when 150 to 300 seconds passed from initiation, FIG. 5
Description: As skin tissues, skin tissues which were refrigerated immediately after removal from living donors and stored at 4° C. for 15 hours were used. The skin tissues were immersed in a phosphate-buffered saline containing 10 μM Neutral Red, to incorporate Neutral Red into sweat glands included in the skin tissues. Next, the dermis of each of the skin tissues was finely cut to obtain dermal segments. Whole sweat glands were collected from the dermal segments by using tweezers under an optical microscope. […]
After 5 minutes passed from the addition of the buffer, the observation with the time-lapse imaging of the whole sweat glands on the glass bottom dish was started by using a confocal laser scanning microscope for biological use (inverted microscope (manufactured by Olympus Corporation, trade name: IX-83) equipped with FV 1200 manufactured by Olympus Corporation)). At that time, the whole sweat glands were visualized by detecting fluorescence derived from the nuclear staining reagent bound to the nucleus and fluorescence derived from the cytoskeleton-staining reagent bound to the cytoskeleton. […]
wherein n is the same as mentioned above. […] The actual moving distance (μm) of the cell was calculated by multiplying the movement value by the size per coordinate 1.

[3] = tested on: isolated whole sweat glands; test: Time-lapse imaging of whole sweat glands in Krebs-Ringer solution: outer and inner diameter index values of sweat gland tubule after stimulant; conditions: pilocarpine 10 mM added after 10 minutes
Description: Whole sweat glands were observed by time-lapse imaging in the same manner as in Example 1 except that Krebs-Ringer solution (composition: 125 mM sodium chloride, 5 mM potassium chloride, 1 mM calcium chloride, 1. 2 mM magnesium chloride, 25 mM sodium bicarbonate, 1.2 mM dihydrogen phosphate sodium, 5 mM glucose and 10 mg/100 mL of fatty acid-free bovine serum albumin, pH 7.48) was used in place of PBS. After 10 minutes passed from the initiation of the observation, pilocarpine which was a sweat gland contraction-inducing reagent (stimulant) was added to the whole sweat glands so as to have a concentration of 10 mM, and thereafter the observation of the whole sweat glands using the time-lapse imaging was continued. Next, changes of each outer diameter index values at the determined sites (A) to (C) shown in FIG. 17 with the passage of time were obtained by using the image analysis software (manufactured by BITPLANE, trade name: Imaris). The outer diameter index value was obtained by stacking data in the Z direction and performing calculation in which the image analysis software was used in the “Surface” mode under the following setting conditions: In FIG. 17, the determined site (A) is a portion enveloped by myoepithelial cells. The determined site (B) and the determined site (C) are portions which are not enveloped by myoepithelial cells, and which are flow pathways for sweat. Further, the scale bar in FIG. 17 means 50 μm. After cancelling the stacking of the data in the Z direction, changes of an inner diameter index value at the determined sites (A) to (C) shown in FIG. 18 were calculated with one kind of data in the Z direction. The internal diameter index value was obtained by preparing the surface model, then extracting the components included in the surface model with Mask tool included in an image analysis software and performing calculation with the image analysis software under the following setting conditions: […]

[4] = site not enveloped by myoepithelial cells, FIG. 19
[5] = site not enveloped by myoepithelial cells, FIG. 20

SMILES | perspiration-controlling action judged from sweat gland dynamics [1] | changes of a moving distance of each cell included in the sweat glands with the passage of time, compared with sweat glands not contacted with atropine ([1]; Krebs-Ringer solution, FIG. 23 vs FIG. 24) | moving distances of the cell A, the cell B, the cell C, and the cell D [2] | outer diameter index value at the determined site (A) ([3]; site enveloped by myoepithelial cells, FIG. 19) | inner diameter index value at the determined site (A) ([3]; site enveloped by myoepithelial cells, FIG. 20) | outer diameter index value at the determined site (B) [3, 4] | outer diameter index value at the determined site (C) [3, 4] | diameter index value at the determined site (B), results of FIG. 20 [3, 5] | diameter index value at the determined site (C), results of FIG. 20 [3, 5]
CN1[C@@H]2CC[C@H]1C[C@@H](OC(=O)C(CO)c1ccccc1)C2 (stereo partly drawn) [atropine] | has an antiperspirant action | smaller |  |  |  |  |  |  | 
CC[C@@H]1C(=O)OC[C@@H]1Cc1cncn1C [pilocarpine] |  |  | become larger | decreases after stimulating with the stimulant and then increases | greatly decreases after stimulating with the stimulant and then increases | increases after stimulating with the stimulant | hardly changes after stimulating with the stimulant | hardly changes immediately after stimulating with the stimulant, but the outer diameter index value increases when passing a certain time | hardly changes immediately after stimulating with the stimulant, but the outer diameter index value increases when passing a certain time
